Experiments:
[1] = test system: HS746T cell line; assay: Cell viability assay (Cell Counting Kit-8), HS746T; format: cell-based, human; conditions: for antitumor effect (number of living cells) / antitumor effect (cell viability): treatment alone, 48 hours; for antitumor effect (number of living cells): cisplatin 5 and 10 μM, compounds 5 and 10 μg/ml, FIGS. 7A and 7B; for antitumor effect (cell viability): HS746T stem-like cells, various concentrations, FIG. 1
Experimental: (§1) In order to evaluate the ability to inhibit the growth or metastasis of cancer cells or cancer stem cells in the examples according to the present invention, the present inventors obtained MKN1 and HS746T, which are cell lines having human gastric cancer stem cell characteristics, and SNU601, YCC7 and NCIN87 cells, which are human gastric cancer cell lines, from the American Type Culture Collection (ATCC) and the Korean Cell Line Bank (KCRB). The cell lines were cultured in different culture media and culture conditions according to ATCC's or KCRB's guidelines. The MKN1, SNU601, and NCIN87 cell lines were cultured in RPMI1640 medium containing 10% fetal bovine serum (FBS), 2 mM L-glutamine, 100 U/ml penicillin and 100 μg/ml streptomycin, and the HS746T and YCC7 Cell lines were cultured in DMEM containing 10% FBS, 2 mM L-glutamine, 100 U/ml penicillin and 100 μg/ml streptomycin. All the cell lines were cultured at 37° C. under 5% CO2, and subjected to a mycoplasma contamination test.
(§2) Each of the cell lines cultured in the Preparation Example was dispensed into a well plate at a density of 1×10^4 cells per well, and cultured overnight at 37° C. under 5% CO2. Then, the HS746T and MKN1 cell lines, which are gastric cancer stem-like cells, and the YCC7 and NCIN87 cell lines, which are gastric cancer cells, were treated with various concentrations of each of cisplatin (CDDP), which is an anticancer drug currently frequently used in the treatment of gastric cancer patients, and the compound CCG-232601 which is an MRTF-A inhibitor. 100 μL of each cell culture and 10 μL of reaction buffer (CCK) were mixed together, placed in a 96-well plate, and incubated for 1 hour at room temperature, and then the absorbance at a wavelength of 450 nm was measured using a spectrophotometer (Synergy HTX Multi-Reader, BioTek, Winooski, VT, USA). At the same time, the number of cells in each sample was measured with a cell viability assay kit (Cell Counting Kit-8), and the measured value was converted so that the measured value for the same number of cells in each sample could be compared with the number of cells in the negative control group. The experimental results presented are the mean values of the repeated experiments.
The present inventors attempted to further confirm the therapeutic effects of the compounds CCG-222740 and CCG-203971, which are compounds other than the compound CCG-232601 corresponding to the MRTFA/SRF inhibitors, against cancer stem cells. As reviewed in Example 1 above, it has been confirmed that the gastric cancer cell line HS746T is of a stem cell-like gastric cancer type, and thus is resistant to the anticancer drug cisplatin. The HS746T cell line was treated with cisplatin and the compounds CCG-222740 and CCG-203971 corresponding to MRTFA/SRF inhibitors. For cell treatment, cisplatin was used at concentrations of 0 μM, 5 μM and 10 μM, and the compound CCG-222740 or CCG-203971 was used at concentrations of 0 μg/ml, 5 μg/ml and 10 μg/ml. The control group was treated with the same amount of DMSO as the compound used for each experimental group. After 48 hours, the number of living cells was measured using a cell viability assay kit (Cell Counting Kit-8), and the results are shown in FIGS. 7A and 7B.

[2] = test system: human colonic myofibroblasts; conditions: cited from earlier work
[3] = test system: murine model of skin injury; conditions: cited from earlier work
[4] = test system: lung fibrosis lung fibroblasts; conditions: cited from earlier work
[5] = test system: alpha smooth muscle actin protein; conditions: cited from earlier work
[6] = test system: preclinical model of fibrosis; conditions: cited from earlier work
[7] = test system: MKN1 cell line; assay: Cell viability assay (Cell Counting Kit-8), MKN1; format: cell-based, human; conditions: for antitumor effect (cell viability): MKN1 stem-like cells, treatment alone, various concentrations, 48 hours, FIG. 1
Experimental: as §1, §2
Accordingly, in order to evaluate the effect of co-administration of the compound CCG-232601, the survival and growth inhibitory effects of administration of CCG-232601 and cisplatin (CDDP) alone or in combination to the MKN1 cell line were evaluated using a cell viability assay kit (Cell Counting Kit-8; CCK-8). In order to evaluate the effect of administration in combination compared to that of administration alone, 5 μg/ml of CCG-232601 was firstly administered to the MKN1 cell line, and after 24 hours, 5 μM cisplatin (CDDP) was secondarily administered. After 24 hours therefrom, the results were checked with a cell viability analysis kit (CCK-8 assay).

[8] = test system: YCC7 cell line; assay: Cell viability assay (Cell Counting Kit-8), YCC7; format: cell-based, human; conditions: YCC7 gastric cancer cells, treatment alone, various concentrations, 48 hours, FIG. 1
Experimental: (§3) In order to evaluate the ability to inhibit the growth or metastasis of cancer cells or cancer stem cells in the examples according to the present invention, the present inventors obtained MKN1 and HS746T, which are cell lines having human gastric cancer stem cell characteristics, and SNU601, YCC7 and NCIN87 cells, which are human gastric cancer cell lines, from the American Type Culture Collection (ATCC) and the Korean Cell Line Bank (KCRB). The cell lines were cultured in different culture media and culture conditions according to ATCC's or KCRB's guidelines. […]
(§4) Each of the cell lines cultured in the Preparation Example was dispensed into a well plate at a density of 1×10^4 cells per well, and cultured overnight at 37° C. under 5% CO2. […] 100 μL of each cell culture and 10 μL of reaction buffer (CCK) were mixed together, placed in a 96-well plate, and incubated for 1 hour at room temperature, and then the absorbance at a wavelength of 450 nm was measured using a spectrophotometer (Synergy HTX Multi-Reader, BioTek, Winooski, VT, USA). At the same time, the number of cells in each sample was measured with a cell viability assay kit (Cell Counting Kit-8), and the measured value was converted so that the measured value for the same number of cells in each sample could be compared with the number of cells in the negative control group. […]

[9] = test system: NCIN87 cell line; assay: Cell viability assay (Cell Counting Kit-8), NCIN87; format: cell-based, human; conditions: NCIN87 gastric cancer cells, treatment alone, various concentrations, 48 hours, FIG. 1
Experimental: as §3, §4

[10] = test system: HS746T cell line; assay: Oxygen consumption rate and extracellular acidification rate (Seahorse), HS746T; format: cell-based, human
Experimental: (§5) In particular, in order to confirm that the compound CCG-232601 has an excellent inhibitory effect on cancer stem cell growth, the oxygen consumption rates (OCRs) and extracellular acidification rates (ECARs) of the stem-like cell lines HS746T and MKN1 having high resistance to metabolic stress were measured and the results are shown in FIG. 2. More specifically, each of the cell lines was seeded in Seahorse normal culture medium at 70 to 80% confluency, and mitochondrial oxidation and glycolytic activity were measured by measuring oxygen consumption rate (OCR, pmol/min/μg protein) and extracellular acidification rate (ECAR, mpH/min/μg protein) using an XF96 or XFp extracellular flux analyzer (Agilent). Mitochondrial oxidation ability of cells pretreated for 1 hour with or without 10 mM β-HB (Sigma) was evaluated using the Seahorse XF mito stress kit (Agilent). To address changes in oxidation and glycolysis upon treatment with CCG-232601, cells were pretreated overnight with vehicle or the inhibitor, and finally 10 mM β-hydroxybutyrate was added during the first injection.

[11] = test system: MKN1 cell line; assay: Oxygen consumption rate and extracellular acidification rate (Seahorse), MKN1; format: cell-based, human
Experimental: as §5

[12] = test system: HS746T cell line; assay: Transwell invasion assay, HS746T; format: cell-based, human; conditions: 10 μg/ml, 12 hours, Matrigel transwell, FIG. 3
Experimental: (§6) Transwell invasion assay was performed with or without CCG-232601 treatment. The invasion ability was measured using a 6.5-mm transwell with an 8.0 μm-pore polycarbonate membrane insert (Corning) after coating with Matrigel (Corning) diluted to 0.67 μg/μl with serum-free medium. Then, cells (2×10^4 cells/well) were suspended in 200 μL of a serum-free medium with vehicle or in 10 μg/ml of CCG-232601, and 1,000 μL of culture medium containing 10% FBS was added to the lower chamber. After 12 hours, the migrated cells were stained with 0.2% crystal violet and observed under an optical microscope. The average number of cells that penetrated the membrane was calculated with ImageJ (NIH) from three randomly selected high-power fields and from two independent experiments, and the results are shown in FIG. 3.

[13] = test system: MKN1 cell line; assay: Transwell invasion assay, MKN1; format: cell-based, human; conditions: MKN1, 10 μg/ml, 12 hours, Matrigel transwell, FIG. 3
Experimental: as §6

[14] = test system: bleomycin-induced dermal fibrosis; conditions: administered orally to mice; cited from earlier work

For `O=C(Nc1ccc(Cl)cc1)C1CCCN(C(=O)c2cccc(-c3ccco3)c2)C1` (centres unmarked) [CCG-203971, N-(4-chlorophenyl)-1-(3-(furan-2-yl)benzoyl)piperidine-3-carboxamide], the “antitumor effect (number of living cells)” value ([1]; HS746T) is given as “significantly improved antitumor effect”, the “matrix stiffness and TGF-β-mediated fibrogenesis” value [2] is given as “inhibits both matrix stiffness and TGF-β-mediated fibrogenesis” and the anti-fibrotic activity [3] is given as “exhibits anti-fibrotic activity”. The anti-fibrotic activity [4] was “exhibits anti-fibrotic activity”.

In the case of `O=C(Nc1ccc(Cl)cc1)C1CN(C(=O)c2cccc(-c3ccco3)c2)CC(F)(F)C1` (centres unmarked) [CCG-222740, N-(4-Chlorophenyl)-5,5-difluoro-1-(3-(furan-2-yl)benzoyl)piperidine-3-carboxamide], the “antitumor effect (number of living cells)” value ([1]; HS746T) is given as “significantly improved antitumor effect”, the “expression of alpha smooth muscle actin protein” value [5] is given as “prevent the expression of alpha smooth muscle actin protein” and the scar tissue formation [6] is given as “effectively prevent scar tissue formation”.

With `O=C(Nc1ccc(Cl)cc1)C1CN(C(=O)c2cccc(-c3ccncc3)c2)CC(F)(F)C1` (centres unmarked) [CCG-232601, N-(4-chlorophenyl)-5,5-difluoro-1-(3-(pyridin-4-yl)benzoyl)piperidine-3-carboxamide] the “antitumor effect (cell viability)” value [1] was “significantly improved antitumor effects”, the “cell viability lower than in the negative control group and the cisplatin-only group” value ([7]; MKN1, 5 μg/ml administered alone, CCK-8, FIG. 6) was 20% and the “antitumor effect (cell viability)” value [7] was “significantly improved antitumor effects”. For the same compound, the “antitumor effect (cell viability)” value [8] was “exhibited antitumor effects”, the “antitumor effect (cell viability)” value [9] was “exhibited antitumor effects” and the “extracellular acidification rate (ECAR) versus oxygen consumption rate (OCR)” value ([10]; HS746T, pretreated overnight, 10 mM β-hydroxybutyrate at first injection, FIG. 2) was “the glycolysis ECAR was higher than OCR”. The “sensitivity to glucose deprivation” value ([10]; gastric cancer stem cells (HS746T)) was “greatly increased the sensitivity to glucose deprivation”, the “extracellular acidification rate (ECAR) versus oxygen consumption rate (OCR)” value ([11]; MKN1, pretreated overnight, 10 mM β-hydroxybutyrate at first injection, FIG. 2) was “the glycolysis ECAR was higher than OCR” and the “sensitivity to glucose deprivation” value ([11]; gastric cancer stem cells (MKN1)) was “greatly increased the sensitivity to glucose deprivation”. For the same compound, the “invasion and metastasis (cells that penetrated the membrane)” value [12] was “reduced the invasion and metastasis”, the “invasion and metastasis (cells that penetrated the membrane)” value [13] was “reduced the invasion and metastasis” and the “development of bleomycin-induced dermal fibrosis” value [14] was “suppress the development of bleomycin-induced dermal fibrosis”.

For `N.N.[Cl][Pt][Cl]` [cisplatin], the “antitumor effect (cell viability)” value [1] was “did not exhibit antitumor effects”, the “drug sensitivity lower than that of the cancer cell lines” value ([1]; HS746T versus SNU601 and NCIN87, cisplatin, FIG. 4) was 20 to 40% and the “drug sensitivity upon cisplatin (CDDP) treatment” value ([1]; HS746T, FIG. 4) was “exhibited resistance to cisplatin”. The “antitumor effect (number of living cells)” value ([1]; HS746T) was “did not exhibit an antitumor effect”, the “drug sensitivity upon cisplatin (CDDP) treatment” value ([7]; MKN1, FIG. 4) was “exhibited resistance to cisplatin” and the “antitumor effect (cell viability)” value [7] was “did not exhibit antitumor effects”. For the same compound, the “drug sensitivity lower than that of the cancer cell lines” value ([7]; MKN1 versus SNU601 and NCIN87, cisplatin, FIG. 4) was 20 to 40%.

— patent publication US12653816B2, “Composition for inhibiting growth of cancer stem cells” (INDUSTRY-ACADEMIC COOPERATION FOUNDATION, YONSEI UNIVERSITY, priority 2020, dated 2026)
